# Assay results reported in PMC11337160, “Chirality and pH Influence the Self-Assembly of Antimicrobial Lipopeptides with Diverse Nanostructures” (ACS Applied Bio Materials, 2024).
# Non-standard residues stand in square brackets, D forms with d. Residues, ends and D or L forms follow the SMILES beside them. *: point of attachment. Palmitoyl = CCCCCCCCCCCCCCCC(=O)*
# Assays:
# [1] = tested on: Salmonella enterica NCTC 5188; experiment: Minimum bactericidal concentration (MBC); format: cell-based; settings: 5 × 10^6 CFU/mL in MHB, lipopeptide 0-1000 μg/mL, 18 h at 37 °C, 10 μL spot-inoculated onto LB agar, overnight 37 °C
# Description: (§1) Two Gram-negative strains (Escherichia coli K12 and Salmonella enterica NCTC 5188) and one Gram-positive strain (Staphylococcus aureus ATCC 12600) were employed to evaluate the potential bactericidal activity of tested lipopeptides. A single colony from each strain, pre-streaked onto an LB (lysogeny broth) agar plate, was inoculated into 5 mL of LB broth and incubated at 37 °C with shaking (250 rpm) for 18 h. Then, the bacterial culture was adjusted to 5 × 10^6 CFU mL^–1 mid-log phase in Mueller-Hinton broth (MHB), and aliquots were transferred to individual wells of a U-bottom 96-well microplate with increasing concentrations of lipopeptides (0–1000 μg mL^–1). Included positive and negative controls consisted of 0.97 μg mL^–1 ciprofloxacin or 1× PBS in MHB, respectively. After 18 h of incubation at 37 °C, 10 μL from each well was spot-inoculated onto LB agar and plates were further incubated at 37 °C overnight to assess the MBC which refers to the lowest concentration of an antibacterial agent required to kill bacteria (here denoted by colony growth on the plate).
# (§2) Figure 9 Determination of MBC of lipopeptides P1, P1D, P2, and P2D. 10 μL aliquots from broth microdilution plates were spot-inoculated onto LB agar plates. The MBC refers to the lowest concentration of an antibacterial agent required to completely kill bacteria shown by the lack of colony formation. […] Positive control (+) 0.97 μg mL^–1 ciprofloxacin; negative control (−) 1X PBS.
# Escherichia coli K12 = format: cell-based; settings: K12, 18 h
# Description: as §1, §2
# [2] = tested on: Staphylococcus aureus ATCC 12600; format: cell-based; settings: ATCC 12600, 18 h
# Description: as §1, §2
# [3] = Critical aggregation concentration (CAC) by Thioflavin T fluorescence; format: physicochemical; settings: ThT fluorescence probe (5 × 10^–4 wt % ThT), aqueous solution pH 8, 25 °C, λex 440 nm, emission 487 nm, breakpoint of I/I0 versus concentration
# Description: For the fluorescence experiments, a Varian Cary Eclipse spectrofluorometer was used, and the samples were placed in 4 mm inner-width quartz cuvettes. For experimental settings, excitation and emission bandwidths of 2.5 nm were used. All the experiments were carried out at 25 °C. The CAC value for all the samples was determined by fluorescence experiments with Thioflavin T (ThT). ThT is well known to bind to amyloid fibrils, and can be used to determine CAC values.[44]−[46] First a stock solution (5 × 10^–4 wt %) ThT solution was prepared and using this solution, various concentrations of samples were prepared. The scan of the fluorescence spectra (λex = 440 nm) was taken from 460 to 670 nm.
# The CAC value of the samples was calculated by plotting I/I0 versus concentration (in wt %). Here I0 is the maximum intensity for the control, i.e., ThT solution without the sample, and I signifies the maximum fluorescence intensity of ThT at a given concentration of lipopeptide.
# To determine the CAC values of these lipopeptides, fluorescence probe assays using Thioflavin T (ThT) were performed, this dye being sensitive to the formation of β-sheet structures.[44]−[46] Emission spectra of the four lipopeptides were collected at different concentrations after excitation at 440 nm. At higher concentrations, an emission peak at 487 nm is visible. […] The lower CAC values for P2 and P2D are due to the higher hydrophobicity of tryptophan compared to tyrosine. […] However, since aggregation at the two different pH values gives rise to distinct nanostructures, this may be coincidental.
# [4] = Cryo-TEM imaging of self-assembled nanostructures; format: physicochemical; settings: 1 wt % aqueous solution, pH 8
# Description: The Cryo-TEM imaging was performed using a field emission cryo-electron microscope (JEOL JEM-3200FSC), operating at 200 kV. To take the TEM images bright field mode with a zero-loss energy filter (omega type) was used, with a slit width of 20 eV. A Gatan UltraScan 4000 CCD camera was used to record the micrographs. During the entire experiment, the sample was kept at −187 °C. An automated FEI Vitrobot device was used to blot and vitrify samples on Quantifoil 3.5:1 holey carbon copper grids with a hole size of 3.5 μm. Before taking the images, grids were first plasma cleaned using a Gatan Solarus 9500 plasma cleaner, followed by transferring to the environmental chamber of a FEI Vitrobot at room temperature and 100% humidity. For sample spotting on the grid, 3 μL of sample solution was taken and spread on the grid. It was blotted twice and then vitrified in a 1:1 mixture of liquid ethane and propane at a temperature of −180 °C. The grids with vitrified sample solution were maintained at liquid nitrogen temperature and then cryo-transferred to the microscope.
# The self-assembled nanostructure of these lipopeptides at acidic pH was investigated at the lower pH of 4.6 in our recent paper,[43] and here we report the unexpected observation of distinct self-assembled nanostructure of these lipopeptides at a higher pH. For cryo-TEM imaging at basic pH, 1 wt % aqueous solution of lipopeptides at pH 8 were prepared, this concentration being above the measured CAC values for these lipopeptides. […] In contrast, the TEM images of all the lipopeptides at pH 4.6 show small spherical micelles with a mean diameter of 4–9 nm (as reported previously,[43] with additional images in Figure S5).
# E. coli [5] = settings: MIC values were reported previously; cited from earlier work
# Description: Table 1 Antimicrobial, Cytotoxic, and Selectivity Index Activities of Lipopeptides ^a | column: MIC (μg/mL) / E. coli
# S. enterica = settings: MIC values were reported previously; cited from earlier work
# Description: Table 1 Antimicrobial, Cytotoxic, and Selectivity Index Activities of Lipopeptides ^a | column: MIC (μg/mL) / S. enterica
# S. aureus = settings: MIC values were reported previously; cited from earlier work
# Description: Table 1 Antimicrobial, Cytotoxic, and Selectivity Index Activities of Lipopeptides ^a | column: MIC (μg/mL) / S. aureus
# E. coli [6] = experiment: Live/Dead staining, membrane integrity (epifluorescence); format: cell-based; settings: two-fold MIC of lipopeptide, 1 h at 37 °C, compared to P1 and P1D
# Description: A bacteria Live/Dead staining kit (PromoKine) was employed to gain insight into the possible membrane disruption activity of tested lipopeptides. In summary, we used two color fluorescence dyes with varying ability to cross the cytoplasmatic membranes of bacteria. DMAO is a green-fluorescent nucleic acid dye which stains the cell membranes of both live and dead bacteria, while the red fluorescing EthD-III dye selectively stains dead bacteria with compromised membranes. With appropriately calculated volumes of dyes, live viable bacterial cells fluoresce green whilst dead compromised cells fluoresce red. For this assessment, a total of 5 × 10^6 mL^–1 exponential phase bacterial cells were incubated with two-fold MIC of lipopeptides for 1 h at 37 °C. Negative and positive controls consisted respectively of the addition of PBS and Triton-X100 (1%) to replace lipopeptides. Afterwards, the sample was centrifuged at 1000g for 10 min. The pellet was resuspended in 100 μL of 0.85% buffered NaCl with the epifluorescence dyes, following the kit instructions, and incubated for 15 min at room temperature. The samples were examined under a Nikon Eclipse Ti2 inverted microscope.
# Figure 10 Membrane permeabilization of E. coli (A) and S. aureus (B) was observed through epifluorescence microscopy. […]
Structure (SMILES),MBC S. enterica [1],MBC E. coli (Escherichia coli K12),MBC S. aureus [2],CAC (critical aggregation concentration) [3],self-assembled nanostructure (cryo-TEM) [4],MIC E. coli (E. coli [5]),MIC S. enterica (S. enterica),MIC S. aureus (S. aureus),mean diameter of nanostructure (cryo-TEM) [4],"formation of bacterial cell aggregates, E. coli (E. coli [6])"
CCCCCCCCCCCCCCCC(=O)N[C@@H](Cc1ccc(O)cc1)C(=O)N[C@H](CCCCN)C(=O)N[C@H](CCCCN)C(N)=O [P1D] (Palmitoyl-Tyr-[dK]-[dK]-NH2),125 µg/mL,62.5 µg/mL,250 µg/mL,0.034 ± 0.005 wt %,twisted nanotape structures of variable width,15.63 to 31.25 µg/mL,31.25 µg/mL,31.25 µg/mL,–,–
CCCCCCCCCCCCCCCC(=O)N[C@@H](Cc1ccc(O)cc1)C(=O)N[C@@H](CCCCN)C(=O)N[C@@H](CCCCN)C(N)=O [P1] (Palmitoyl-Tyr-Lys-Lys-NH2),125 µg/mL,62.5 µg/mL,62.5 µg/mL,0.040 ± 0.003 wt %,long intertwined nanofibers,15.63 to 31.25 µg/mL,31.25 to 62.5 µg/mL,31.25 to 62.5 µg/mL,11.7 ± 3.3 nm,–
CCCCCCCCCCCCCCCC(=O)N[C@@H](Cc1c[nH]c2ccccc12)C(=O)N[C@@H](CCCCN)C(=O)N[C@@H](CCCCN)C(N)=O [P2] (Palmitoyl-Trp-Lys-Lys-NH2),250 µg/mL,250 µg/mL,250 µg/mL,0.026 ± 0.004 wt %,long intertwined nanofibers,15.63 to 62.5 µg/mL,62.5 to 250 µg/mL,31.25 to 62.5 µg/mL,6.4 ± 2 nm,cell aggregates (clusters) was observed
CCCCCCCCCCCCCCCC(=O)N[C@@H](Cc1c[nH]c2ccccc12)C(=O)N[C@H](CCCCN)C(=O)N[C@H](CCCCN)C(N)=O [P2D] (Palmitoyl-Trp-[dK]-[dK]-NH2),125 µg/mL,62.5 µg/mL,62.5 µg/mL,0.026 ± 0.004 wt %,nanotube structures,31.25 to 62.5 µg/mL,62.5 µg/mL,31.25 to 62.5 µg/mL,32.8 ± 4.5 nm,cell aggregates (clusters) was observed
